This passage reports IC50 results from BindingDB's records for doi:10.1016/j.bmcl.2004.04.032 (Bristol-Myers Squibb, 2004).

pIC50: −log10 of the molar value.

The first test addresses T1, Thyroid hormone receptor alpha (Homo sapiens, UniProt P10827).
T1 sequence (P10827 whole entry): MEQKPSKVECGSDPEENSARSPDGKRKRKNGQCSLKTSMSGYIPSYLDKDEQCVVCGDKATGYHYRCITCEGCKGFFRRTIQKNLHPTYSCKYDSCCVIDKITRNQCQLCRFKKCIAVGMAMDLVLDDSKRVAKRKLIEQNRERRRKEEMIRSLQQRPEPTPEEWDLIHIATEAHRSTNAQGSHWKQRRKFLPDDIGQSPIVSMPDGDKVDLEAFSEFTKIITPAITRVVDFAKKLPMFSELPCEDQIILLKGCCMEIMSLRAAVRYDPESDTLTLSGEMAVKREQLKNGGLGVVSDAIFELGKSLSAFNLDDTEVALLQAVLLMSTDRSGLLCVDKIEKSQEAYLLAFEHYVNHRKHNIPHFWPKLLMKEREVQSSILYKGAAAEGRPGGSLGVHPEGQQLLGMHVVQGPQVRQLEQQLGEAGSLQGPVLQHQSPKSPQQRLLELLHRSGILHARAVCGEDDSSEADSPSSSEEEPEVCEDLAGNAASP
The test is described as follows: TRalpha-Binding Assay.
Settings: not given
As for `O=C(O)Cc1cc(Br)c(Oc2ccc(O)c(C(=O)NCC(c3ccccc3)c3ccccc3)c2)c(Br)c1` [2-(3,5-dibromo-4-{3-[(2,2-diphenylethyl)carbamoyl]-4-hydroxyphenoxy}phenyl)acetic acid], the pIC50 is 7.74. On the same count and under the same terms, the same measure for `O=C(O)Cc1cc(Br)c(Oc2ccc(O)c(Oc3ccccc3C(F)(F)F)c2)c(Br)c1` [2-(3,5-dibromo-4-{4-hydroxy-3-[2-(trifluoromethyl)phenoxy]phenoxy}phenyl)acetic acid]: 6.61.

`O=C(O)Cc1cc(Br)c(Oc2ccc(O)c(Oc3cccc(C(F)(F)F)c3)c2)c(Br)c1` [2-(3,5-dibromo-4-{4-hydroxy-3-[3-(trifluoromethyl)phenoxy]phenoxy}phenyl)acetic acid] gave a negative-log IC50 (pIC50) of 7.30. Compound `O=C(O)Cc1cc(Br)c(Oc2ccc(O)c(Oc3ccc(C(F)(F)F)cc3)c2)c(Br)c1` [2-(3,5-dibromo-4-{4-hydroxy-3-[4-(trifluoromethyl)phenoxy]phenoxy}phenyl)acetic acid] showed a negative-log IC50 (pIC50) of 6.49.

Compound `O=C(O)Cc1cc(Br)c(Oc2ccc(O)c(C(=O)NCCc3ccccc3)c2)c(Br)c1` [2-(3,5-dibromo-4-{4-hydroxy-3-[(2-phenylethyl)carbamoyl]phenoxy}phenyl)acetic acid] gave a pIC50 of 7.82. This pIC50 is 1.33 log units higher than that of the compound before. Still for that read-out and setting: as for `O=C(O)Cc1cc(Br)c(Oc2ccc(O)c(C(=O)NCCCc3ccccc3)c2)c(Br)c1` [2-(3,5-dibromo-4-{4-hydroxy-3-[(3-phenylpropyl)carbamoyl]phenoxy}phenyl)acetic acid], the figure is 6.69; as for `O=C(O)Cc1cc(Br)c(Oc2ccc(O)c(C(=O)NCCCCc3ccccc3)c2)c(Br)c1` [2-(3,5-dibromo-4-{4-hydroxy-3-[(4-phenylbutyl)carbamoyl]phenoxy}phenyl)acetic acid], 6.55. Still for that read-out and setting: the same measure for `O=C(O)Cc1cc(Cl)c(Oc2ccc(O)c(C(=O)NCCc3ccccc3)c2)c(Cl)c1` [2-(3,5-dichloro-4-{4-hydroxy-3-[(2-phenylethyl)carbamoyl]phenoxy}phenyl)acetic acid]: 6.90; for `O=C(O)Cc1cc(Br)c(Oc2ccc(O)c(Oc3ccccc3)c2)c(Br)c1` [2-[3,5-dibromo-4-(4-hydroxy-3-phenoxyphenoxy)phenyl]acetic acid]: 6.91; for `COc1ccccc1CCNC(=O)c1cc(Oc2c(Br)cc(CC(=O)O)cc2Br)ccc1O` [2-[3,5-dibromo-4-(4-hydroxy-3-{[2-(2-methoxyphenyl)ethyl]carbamoyl}phenoxy)phenyl]acetic acid]: 7.02. The same measure, in the same setting: as for `COc1cccc(CCNC(=O)c2cc(Oc3c(Br)cc(CC(=O)O)cc3Br)ccc2O)c1` [2-[3,5-dibromo-4-(4-hydroxy-3-{[2-(3-methoxyphenyl)ethyl]carbamoyl}phenoxy)phenyl]acetic acid], the figure is 7.03; as for `COc1ccc(CCNC(=O)c2cc(Oc3c(Br)cc(CC(=O)O)cc3Br)ccc2O)cc1` [2-[3,5-dibromo-4-(4-hydroxy-3-{[2-(4-methoxyphenyl)ethyl]carbamoyl}phenoxy)phenyl]acetic acid], 6.64. Compound `O=C(O)Cc1cc(Br)c(Oc2ccc(O)c(C(=O)NCCc3ccccn3)c2)c(Br)c1` [2-[3,5-dibromo-4-(4-hydroxy-3-{[2-(pyridin-2-yl)ethyl]carbamoyl}phenoxy)phenyl]acetic acid] showed a negative-log IC50 (pIC50) of 5.95. This pIC50 lies 0.69 log units lower than the previous one. In turn, `O=C(O)Cc1cc(Br)c(Oc2ccc(O)c(Oc3ccccc3O)c2)c(Br)c1` [2-{3,5-dibromo-4-[4-hydroxy-3-(2-hydroxyphenoxy)phenoxy]phenyl}acetic acid] had a pIC50 of 5.83. On the same count and under the same terms, as for `O=C(O)Cc1cc(Br)c(Oc2ccc(O)c(Oc3cccc(O)c3)c2)c(Br)c1` [2-{3,5-dibromo-4-[4-hydroxy-3-(3-hydroxyphenoxy)phenoxy]phenyl}acetic acid], the figure is 6.26; as for `O=C(O)Cc1cc(Br)c(Oc2ccc(O)c(Oc3cccc(-c4ccccc4)c3)c2)c(Br)c1` [2-{3,5-dibromo-4-[4-hydroxy-3-(3-phenylphenoxy)phenoxy]phenyl}acetic acid], 6.30; as for `O=C(O)Cc1cc(Br)c(Oc2ccc(O)c(Oc3ccc(O)cc3)c2)c(Br)c1` [2-{3,5-dibromo-4-[4-hydroxy-3-(4-hydroxyphenoxy)phenoxy]phenyl}acetic acid], 6.63. `O=C(O)Cc1cc(Br)c(Oc2ccc(O)c(C(=O)Nc3ccccc3)c2)c(Br)c1` [2-{3,5-dibromo-4-[4-hydroxy-3-(phenylcarbamoyl)phenoxy]phenyl}acetic acid]: the negative logarithm of the IC50 (pIC50) is 6.37.

`O=C(O)Cc1cc(Br)c(Oc2ccc(O)c(C(=O)NCc3ccccc3)c2)c(Br)c1` [2-{4-[3-(benzylcarbamoyl)-4-hydroxyphenoxy]-3,5-dibromophenyl}acetic acid] showed a pIC50 of 7.08.

Still in this test, the particulars now being: pH 7; 4 °C.
On to `O=C(O)Cc1cc(Cl)c(Oc2ccc(O)c(-c3cccc(OC(F)F)c3)c2)c(Cl)c1` [2-(3,5-dichloro-4-{3-[3-(difluoromethoxy)phenyl]-4-hydroxyphenoxy}phenyl)acetic acid], for which the pIC50 is 7.52.

Turning to `O=C(O)Cc1cc(Cl)c(Oc2ccc(O)c(-c3ccccc3C(F)(F)F)c2)c(Cl)c1` [2-(3,5-dichloro-4-{4-hydroxy-3-[2-(trifluoromethyl)phenyl]phenoxy}phenyl)acetic acid], the negative logarithm of the IC50 (pIC50) is 7.74. `CC(C)c1cccc(-c2cc(Oc3c(Cl)cc(CC(=O)O)cc3Cl)ccc2O)c1` [2-(3,5-dichloro-4-{4-hydroxy-3-[3-(propan-2-yl)phenyl]phenoxy}phenyl)acetic acid] had a negative-log IC50 (pIC50) of 6.91. `O=C(O)Cc1cc(Cl)c(Oc2ccc(O)c(-c3cccc(OC(F)(F)F)c3)c2)c(Cl)c1` [2-(3,5-dichloro-4-{4-hydroxy-3-[3-(trifluoromethoxy)phenyl]phenoxy}phenyl)acetic acid] gave a pIC50 of 7.00. On the same count and under the same terms, as for `O=C(O)Cc1cc(Cl)c(Oc2ccc(O)c(-c3cccc(C(F)(F)F)c3)c2)c(Cl)c1` [2-(3,5-dichloro-4-{4-hydroxy-3-[3-(trifluoromethyl)phenyl]phenoxy}phenyl)acetic acid], the figure is 7.40. The same measure, in the same setting: as for `O=C(O)Cc1cc(Cl)c(Oc2ccc(O)c(-c3ccc(C(F)(F)F)cc3)c2)c(Cl)c1` [2-(3,5-dichloro-4-{4-hydroxy-3-[4-(trifluoromethyl)phenyl]phenoxy}phenyl)acetic acid], the figure is 6.29. Same read-out and setting: the same measure for `O=C(O)Cc1cc(Cl)c(Oc2ccc(O)c(C3CCCCC3)c2)c(Cl)c1` [2-[3,5-dichloro-4-(3-cyclohexyl-4-hydroxyphenoxy)phenyl]acetic acid]: 6.59.

The compound `O=C(O)Cc1cc(Cl)c(Oc2ccc(O)c(-c3ccccc3)c2)c(Cl)c1` [2-[3,5-dichloro-4-(4-hydroxy-3-phenylphenoxy)phenyl]acetic acid] showed a pIC50 of 6.82. On the same count and under the same terms, as for `CCc1cccc(-c2cc(Oc3c(Cl)cc(CC(=O)O)cc3Cl)ccc2O)c1` [2-{3,5-dichloro-4-[3-(3-ethylphenyl)-4-hydroxyphenoxy]phenyl}acetic acid], the figure is 7.89; as for `O=C(O)Cc1cc(Cl)c(Oc2ccc(O)c(-c3nccs3)c2)c(Cl)c1` [2-{3,5-dichloro-4-[4-hydroxy-3-(1,3-thiazol-2-yl)phenoxy]phenyl}acetic acid], 6.25; as for `O=C(O)Cc1cc(Cl)c(Oc2ccc(O)c(-c3ccccc3O)c2)c(Cl)c1` [2-{3,5-dichloro-4-[4-hydroxy-3-(2-hydroxyphenyl)phenoxy]phenyl}acetic acid], 5.98.

As to `O=C(O)Cc1cc(Cl)c(Oc2ccc(O)c(-c3cccc(O)c3)c2)c(Cl)c1` [2-{3,5-dichloro-4-[4-hydroxy-3-(3-hydroxyphenyl)phenoxy]phenyl}acetic acid], the pIC50 is 5.94. In turn, `COc1cccc(-c2cc(Oc3c(Cl)cc(CC(=O)O)cc3Cl)ccc2O)c1` [2-{3,5-dichloro-4-[4-hydroxy-3-(3-methoxyphenyl)phenoxy]phenyl}acetic acid] gave a pIC50 of 6.53. The compound `O=C(O)Cc1cc(Cl)c(Oc2ccc(O)c(-c3cccc(-c4ccccc4)c3)c2)c(Cl)c1` [2-{3,5-dichloro-4-[4-hydroxy-3-(3-phenylphenyl)phenoxy]phenyl}acetic acid] had a negative logarithm of the IC50 (pIC50) of 6.34. On to `O=C(O)Cc1cc(Cl)c(Oc2ccc(O)c(-c3ccc(O)cc3)c2)c(Cl)c1` [2-{3,5-dichloro-4-[4-hydroxy-3-(4-hydroxyphenyl)phenoxy]phenyl}acetic acid], for which the negative logarithm of the IC50 (pIC50) is 6.07. Same read-out and setting: the same measure for `O=C(O)Cc1cc(Cl)c(Oc2ccc(O)c(-c3ccccn3)c2)c(Cl)c1` [2-{3,5-dichloro-4-[4-hydroxy-3-(pyridin-2-yl)phenoxy]phenyl}acetic acid]: 5.82; for `O=C(O)Cc1cc(Cl)c(Oc2ccc(O)c(-c3cccnc3)c2)c(Cl)c1` [2-{3,5-dichloro-4-[4-hydroxy-3-(pyridin-3-yl)phenoxy]phenyl}acetic acid]: 6.09; for `O=C(O)Cc1cc(Cl)c(Oc2ccc(O)c(-c3ccncc3)c2)c(Cl)c1` [2-{3,5-dichloro-4-[4-hydroxy-3-(pyridin-4-yl)phenoxy]phenyl}acetic acid]: 6.84. Still for that read-out and setting: the same measure for `O=C(O)Cc1cc(Cl)c(Oc2ccc(O)c(-c3cncnc3)c2)c(Cl)c1` [2-{3,5-dichloro-4-[4-hydroxy-3-(pyrimidin-5-yl)phenoxy]phenyl}acetic acid]: 6.57.
